# According to PubChem BioAssay AID1963834 (Molecular Pharmacology Branch, DTP, NCI, 2024):
# Test system: 873145-292-R-J1-PDC complex spheroid viability
# Assay: Anticancer human tumor 873145-292-R-J1-PDC patient-derived renal clear cell carcinoma cell line growth inhibition [POLQ]
# Settings: for IC50: curve of first compound; for viability, T/C: stronger effect = lower value
# Outline: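 Patient-derived tumour cells were co-cultured with HUVEC and mesenchymal stem cells as multicellular spheroids at 37 °C. They were treated with POLQ inhibitors (novobiocin, ART-558, RP6685) alone or combined with other agents. Top concentrations were at or near clinical Cmax (otherwise 10 microM; SN-38 at 1 microM), decreasing in half-log steps.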
# [1] = second compound 0.0316 µM, first compound 0.0316 µM
# [2] = second compound 0.0316 µM, first compound 0.1 µM
# [3] = second compound 0.0316 µM, first compound 0.316 µM
# [4] = second compound 0.0316 µM, first compound 1 µM
# [5] = second compound 0.0316 µM, first compound 3.16 µM
# [6] = second compound 0.0316 µM, first compound 10 µM
# [7] = second compound 0.1 µM, first compound 0.0316 µM
# [8] = second compound 0.1 µM, first compound 0.1 µM
# [9] = second compound 0.1 µM, first compound 0.316 µM
# [10] = second compound 0.1 µM, first compound 1 µM
# [11] = second compound 0.1 µM, first compound 3.16 µM
# [12] = second compound 0.1 µM, first compound 10 µM
# [13] = second compound 0.316 µM, first compound 0.0316 µM
# [14] = second compound 0.316 µM, first compound 0.1 µM
# [15] = second compound 0.316 µM, first compound 0.316 µM
# [16] = second compound 0.316 µM, first compound 1 µM
# [17] = second compound 0.316 µM, first compound 3.16 µM
# [18] = second compound 0.316 µM, first compound 10 µM
# [19] = second compound 1 µM, first compound 0.0316 µM
# [20] = second compound 1 µM, first compound 0.1 µM
# [21] = second compound 1 µM, first compound 0.316 µM
# [22] = second compound 1 µM, first compound 1 µM
# [23] = second compound 1 µM, first compound 3.16 µM
# [24] = second compound 1 µM, first compound 10 µM
# [25] = second compound 3.16 µM, first compound 0.0316 µM
# [26] = second compound 3.16 µM, first compound 0.1 µM
# [27] = second compound 3.16 µM, first compound 0.316 µM
# [28] = second compound 3.16 µM, first compound 1 µM
# [29] = second compound 3.16 µM, first compound 3.16 µM
# [30] = second compound 3.16 µM, first compound 10 µM
# [31] = second compound 10 µM, first compound 0.0316 µM
# [32] = second compound 10 µM, first compound 0.1 µM
# [33] = second compound 10 µM, first compound 0.316 µM
# [34] = second compound 10 µM, first compound 1 µM
# [35] = second compound 10 µM, first compound 3.16 µM
# [36] = second compound 10 µM, first compound 10 µM
# 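Further: spheroids exposed to compounds for 7 days before viability readout.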
# 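Wherever viability, T/C is given: luminescence signal used as surrogate for viable cell content; 100% = DMSO vehicle control viability.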
compound,measurement,setting,value
COc1cc2cc(C(=O)CCC(=O)O)sc2cc1OC + Cc1cccc(N(C)C(=O)C2C(O)CCN2c2nc(C)cc(C(F)(F)F)c2C#N)c1,IC50,second compound 0.0316 µM,> 10 µM
same,IC50,second compound 0.1 µM,> 10 µM
same,IC50,second compound 0.316 µM,> 10 µM
same,IC50,second compound 1 µM,> 10 µM
same,IC50,second compound 3.16 µM,> 10 µM
same,IC50,second compound 10 µM,> 10 µM
same,"viability, T/C",[1],103%
same,"viability, T/C",[2],106%
same,"viability, T/C",[3],111%
same,"viability, T/C",[4],105%
same,"viability, T/C",[5],101%
same,"viability, T/C",[6],104%
same,"viability, T/C",[7],97.9%
same,"viability, T/C",[8],115%
same,"viability, T/C",[9],96.9%
same,"viability, T/C",[10],92.1%
same,"viability, T/C",[11],98.8%
same,"viability, T/C",[12],107%
same,"viability, T/C",[13],98.3%
same,"viability, T/C",[14],110%
same,"viability, T/C",[15],95.1%
same,"viability, T/C",[16],96.1%
same,"viability, T/C",[17],93.5%
same,"viability, T/C",[18],97.6%
same,"viability, T/C",[19],101%
same,"viability, T/C",[20],98.7%
same,"viability, T/C",[21],94%
same,"viability, T/C",[22],100%
same,"viability, T/C",[23],95.6%
same,"viability, T/C",[24],103%
same,"viability, T/C",[25],89%
same,"viability, T/C",[26],117%
same,"viability, T/C",[27],102%
same,"viability, T/C",[28],99.4%
same,"viability, T/C",[29],98.4%
same,"viability, T/C",[30],101%
same,"viability, T/C",[31],98.2%
same,"viability, T/C",[32],95.9%
same,"viability, T/C",[33],102%
same,"viability, T/C",[34],97.7%
same,"viability, T/C",[35],104%
same,"viability, T/C",[36],103%
Cn1ncnc1[C@H]1c2n[nH]c(=O)c3cc(F)cc(c23)N[C@@H]1c1ccc(F)cc1 + COC1C(OC(N)=O)C(O)C(Oc2ccc3c(O)c(NC(=O)c4ccc(O)c(CC=C(C)C)c4)c(=O)oc3c2C)OC1(C)C,IC50,second compound 0.0316 µM,> 0.1 µM
same,IC50,second compound 0.1 µM,> 0.1 µM
same,IC50,second compound 0.316 µM,> 0.1 µM
same,IC50,second compound 1 µM,> 0.1 µM
same,IC50,second compound 3.16 µM,> 0.1 µM
same,IC50,second compound 10 µM,> 0.1 µM
same,"viability, T/C","second compound 0.0316 µM, first compound 0.000316 µM",98.5%
same,"viability, T/C","second compound 0.0316 µM, first compound 0.001 µM",102%
same,"viability, T/C","second compound 0.0316 µM, first compound 0.00316 µM",87.2%
same,"viability, T/C","second compound 0.0316 µM, first compound 0.01 µM",94.8%
same,"viability, T/C",[1],102%
same,"viability, T/C",[2],95.9%
same,"viability, T/C","second compound 0.1 µM, first compound 0.000316 µM",101%
same,"viability, T/C","second compound 0.1 µM, first compound 0.001 µM",102%
same,"viability, T/C","second compound 0.1 µM, first compound 0.00316 µM",96.2%
same,"viability, T/C","second compound 0.1 µM, first compound 0.01 µM",85.9%
same,"viability, T/C",[7],99.5%
same,"viability, T/C",[8],84.2%
same,"viability, T/C","second compound 0.316 µM, first compound 0.000316 µM",102%
same,"viability, T/C","second compound 0.316 µM, first compound 0.001 µM",98.7%
same,"viability, T/C","second compound 0.316 µM, first compound 0.00316 µM",102%
same,"viability, T/C","second compound 0.316 µM, first compound 0.01 µM",93.1%
same,"viability, T/C",[13],94.8%
same,"viability, T/C",[14],91.6%
same,"viability, T/C","second compound 1 µM, first compound 0.000316 µM",103%
same,"viability, T/C","second compound 1 µM, first compound 0.001 µM",99.3%
same,"viability, T/C","second compound 1 µM, first compound 0.00316 µM",95.6%
same,"viability, T/C","second compound 1 µM, first compound 0.01 µM",103%
same,"viability, T/C",[19],94.5%
same,"viability, T/C",[20],89.8%
same,"viability, T/C","second compound 3.16 µM, first compound 0.000316 µM",101%
same,"viability, T/C","second compound 3.16 µM, first compound 0.001 µM",97.7%
same,"viability, T/C","second compound 3.16 µM, first compound 0.00316 µM",108%
same,"viability, T/C","second compound 3.16 µM, first compound 0.01 µM",89.3%
same,"viability, T/C",[25],98.8%
same,"viability, T/C",[26],99.3%
same,"viability, T/C","second compound 10 µM, first compound 0.000316 µM",98.9%
same,"viability, T/C","second compound 10 µM, first compound 0.001 µM",95%
same,"viability, T/C","second compound 10 µM, first compound 0.00316 µM",104%
same,"viability, T/C","second compound 10 µM, first compound 0.01 µM",90.9%
same,"viability, T/C",[31],95.2%
same,"viability, T/C",[32],94.9%
C#Cc1c(F)ccc2cc(O)cc(-c3ncc4c(N5CC6CCC(C5)N6)nc(OCC56CCCN5CC(F)C6)nc4c3F)c12 (stereo unspecified) + COC1C(OC(N)=O)C(O)C(Oc2ccc3c(O)c(NC(=O)c4ccc(O)c(CC=C(C)C)c4)c(=O)oc3c2C)OC1(C)C,IC50,second compound 0.0316 µM,> 10 µM
same,IC50,second compound 0.1 µM,> 10 µM
same,IC50,second compound 0.316 µM,> 10 µM
same,IC50,second compound 1 µM,> 10 µM
same,IC50,second compound 3.16 µM,> 10 µM
same,IC50,second compound 10 µM,> 10 µM
same,"viability, T/C",[1],97.7%
same,"viability, T/C",[2],92.7%
same,"viability, T/C",[3],95.1%
same,"viability, T/C",[4],83.9%
same,"viability, T/C",[5],86.5%
same,"viability, T/C",[6],89.6%
same,"viability, T/C",[7],102%
same,"viability, T/C",[8],97.7%
same,"viability, T/C",[9],99%
same,"viability, T/C",[10],75.7%
same,"viability, T/C",[11],79.6%
same,"viability, T/C",[12],82.7%
same,"viability, T/C",[13],98%
same,"viability, T/C",[14],85.7%
same,"viability, T/C",[15],82.1%
same,"viability, T/C",[16],77.8%
same,"viability, T/C",[17],86.5%
same,"viability, T/C",[18],80.4%
same,"viability, T/C",[19],94.4%
same,"viability, T/C",[20],97.1%
same,"viability, T/C",[21],99.7%
same,"viability, T/C",[22],76%
same,"viability, T/C",[23],82.2%
same,"viability, T/C",[24],88.3%
same,"viability, T/C",[25],92.5%
same,"viability, T/C",[26],92.9%
same,"viability, T/C",[27],83.4%
same,"viability, T/C",[28],79.3%
same,"viability, T/C",[29],86.4%
same,"viability, T/C",[30],84%
same,"viability, T/C",[31],86.2%
same,"viability, T/C",[32],95.5%
same,"viability, T/C",[33],82.1%
same,"viability, T/C",[34],86.3%
same,"viability, T/C",[35],86.9%
same,"viability, T/C",[36],82.1%
